Measured values taken from US7446195B2, “High affinity thiophene-based and furan-based kinase ligands” (Schering Corporation, priority 2005, dated 2008).

Biological target: CDK-2 (Homo sapiens, UniProt P24941)
Assay: CDK-2 inhibition (Table 1; fluorescence polarization displacement assay)
Type: binding
Conditions: inhibitory effectiveness toward CDK-2
Procedure: The affinity of lead inhibitors binding to CDK-2 and CDK-2/cyclin A were determined by measuring a Ki value using a fluorescence polarization displacement assay. The deacetylated form of compound BMS-250595 was reacted with Alexa Fluor 647 to generate a compound (BMS-Alexa Fluor647) that bound to both proteins and provided a signal for fluorescence polarization displacement. Binding assays were performed in a 384 well Costar NBS coated plate. A total volume of […] contained concentrations of CDK-2 or CDK-2/cyclin A at […], respectively. The concentration of BMS-Alexa Fluor647 was 50 nM. Serial dilutions of compounds were added to 12 wells. The final buffer concentration was 10 mM Hepes, pH 7.5, 150 mM NaCl, and 1 mM DTT. Samples were incubated at room temperature for 15 minutes and then read in an Analyst HT instrument using an excitation and emission wavelength of 580 and 680 nm, respectively. The […] curve fitting tool described by Zhang et al., 2004 (Zhang R., Mayhood T., Lipari P., Wang Y., Durkin D., Syto R., Gesell J., McNemar C., and Windsor W., Analytical Biochemistry 331 (2004) 138-146)

Compound | IC50 [µM]
O=C(NCCc1cccnc1)c1ccc(C(=O)Nc2ccc(-n3cncn3)cc2)s1 [Compound 78] | 1 to 40
COc1ccc(NC(=O)c2ccc(C(=O)Nc3ccc4scnc4c3)s2)c(C)c1 [Compound 173] | ≥ 40
COc1ccc(NC(=O)c2ccc(C(=O)Nc3ccc(N4CCNCC4)cc3)s2)c(C)c1 [Compound 122] | ≥ 40
CN(C)C(=O)c1ccc(C(=O)Nc2ccc(-n3cncn3)c(F)c2)o1 [Compound 216] | ≥ 40
O=C(NCCN1CCCC1)c1ccc(C(=O)Nc2ccc(-n3cncn3)cc2)s1 [Compound 52] | 1 to 40
Cc1cc(CNC(=O)c2ccc(C(=O)Nc3ccc(-n4cncn4)cc3)s2)no1 [Compound 105] | ≥ 40
COc1ccc(NC(=O)c2ccc(C(=O)Nc3ccc(-c4cnco4)cc3)s2)c(C)c1 [Compound 131] | ≥ 40
COc1ccc(C(=O)Nc2ccc(C(=O)N3CCC(Oc4cnccn4)CC3)o2)c(C)c1 [Compound 192] | ≥ 40
O=C(NCCN1CCOCC1)c1ccc(C(=O)Nc2ccc(-n3cncn3)cc2)s1 [Compound 147] | ≥ 40
COc1ccc(C(=O)Nc2ccc(C(=O)Nc3ccc(-n4cncn4)cc3)s2)cc1 [Compound 42] | 1 to 40
CNC(=O)c1ccc(C(=O)Nc2ccc(-n3cncn3)c(F)c2)o1 [Compound 215] | ≥ 40
O=C(Nc1ccc(-n2cncn2)cc1)c1ccc(C(=O)N2CCCC(c3ccccc3)C2)s1 (stereo not drawn) [Compound 116] | ≥ 40
COc1ccc(C(=O)Nc2ccc(C(=O)N3CCC(c4ccncc4)C3)o2)c(C)c1 (stereo not drawn) [Compound 191] | ≥ 40
C[C@H](NC(=O)c1ccc(C(=O)Nc2ccc(-n3cncn3)c(F)c2)o1)C1CCCCC1 [Compound 28] | ≤ 1
O=C(Nc1ccc(C(=O)Nc2ccc(-n3cncn3)cc2)o1)c1ccncc1 [Compound 185] | ≥ 40
Cc1ccccc1C(=O)Nc1ccc(C(=O)Nc2ccc(-n3cncn3)cc2)o1 [Compound 184] | ≥ 40
CC(C)[C@@H](CO)NC(=O)c1ccc(C(=O)Nc2ccc(-n3cncn3)cc2)s1 [Compound 153] | ≥ 40
COc1ccc(C(=O)Nc2ccc(C(=O)N3CCC(c4ccccn4)C3)o2)c(C)c1 (stereo not drawn) [Compound 190] | ≥ 40
O=C(Nc1ccc(-n2cncn2)c(F)c1)c1ccc(C(=O)N2CCOCC2)o1 [Compound 211] | ≥ 40
COc1ccc(NC(=O)c2ccc(C(=O)Nc3ccc(-n4cncn4)cc3)o2)cc1 [Compound 35] | ≤ 1

Compound | IC50 [µM]
O=C(NCc1ccc2c(c1)CCO2)c1ccc(C(=O)Nc2ccc(-n3cncn3)cc2)s1 [Compound 115] | ≥ 40
O=C(Nc1ccc(-n2cncn2)cc1)c1ccc(NC(=O)C2CCCCC2)s1 [Compound 21] | ≤ 1
O=C(Nc1ccc(-n2cncn2)cc1)c1ccc(C(=O)N2CCOCC2)s1 [Compound 85] | ≥ 40
COc1ccc(NC(=O)c2ccc(C(=O)Nc3ccc(-n4cncn4)cc3)o2)c(C)c1 [Compound 26] | ≤ 1
COc1ccc(NC(=O)c2ccc(C(=O)Nc3ccc(-c4nc[nH]n4)c(F)c3)o2)c(C)c1 [Compound 7] | ≤ 1
COc1ccc(NC(=O)c2ccc(C(=O)Nc3ccc(N4CCN(C)CC4)cc3)s2)c(C)c1 [Compound 123] | ≥ 40
O=C(Nc1ccc(C(=O)Nc2ccc(-n3cncn3)cc2)o1)c1ccccc1 [Compound 183] | ≥ 40
O=C(Nc1ccc(-n2cncn2)cc1)c1ccc(C(=O)N[C@@H]2CC3CCC2C3)s1 (stereo partly drawn) [Compound 104] | ≥ 40
CC(C)CNC(=O)c1ccc(C(=O)Nc2ccc(-n3cncn3)cc2)s1 [Compound 83] | ≥ 40
COc1ccc(NC(=O)c2ccc(C(=O)Nc3ccc(N4CCCCC4)cc3)s2)c(C)c1 [Compound 121] | ≥ 40
CN(C(=O)c1ccc(C(=O)Nc2ccc(-n3cncn3)cc2)s1)C1CCCCC1 [Compound 39] | ≤ 1
CN(C)CCNC(=O)c1ccc(C(=O)Nc2ccc(-n3cncn3)cc2)s1 [Compound 87] | ≥ 40
O=C(Nc1ccc(-n2cncn2)cc1)c1ccc(C(=O)NC2CCNCC2)s1 [Compound 139] | ≥ 40
O=C(Nc1ccc(-n2cncn2)cc1)c1ccc(NC(=O)C2CCCCC2)o1 [Compound 187] | ≥ 40
CN1CCCC1CCNC(=O)c1ccc(C(=O)Nc2ccc(-n3cncn3)cc2)s1 (stereo not drawn) [Compound 145] | ≥ 40
COc1ccc(NC(=O)c2ccc(C(=O)Nc3ccc(-c4nnn[nH]4)cc3)s2)c(C)c1 [Compound 178] | ≥ 40
Cc1cnc(CNC(=O)c2ccc(C(=O)Nc3ccc(-n4cncn4)cc3)s2)cn1 [Compound 111] | ≥ 40
O=C(Nc1ccc(-n2cncn2)cc1)c1ccc(C(=O)N2CCN(C3CCCC3)CC2)s1 [Compound 152] | ≥ 40
O=C(Nc1ccc(-n2cncn2)cc1)c1ccc(C(=O)N[C@@H]2CCNC2)s1 [Compound 136] | ≥ 40

The next lines start with the values.

IC50 [µM] | Compound
≥ 40 | CN(Cc1ccccc1)C(=O)c1ccc(C(=O)Nc2ccc(-n3cncn3)cc2)s1 [Compound 107]
≥ 40 | COc1ccccc1NC(=O)c1ccc(C(=O)Nc2ccc(-n3cncn3)cc2)s1 [Compound 110]
≥ 40 | O=C(NCCc1ccccn1)c1ccc(C(=O)Nc2ccc(-n3cncn3)cc2)s1 [Compound 156]
1 to 40 | COc1ccc(NC(=O)c2ccc(C(=O)Nc3ccc(-n4cncn4)cc3)s2)c(C(=O)O)c1 [Compound 79]
≤ 1 | COc1ccc(NC(=O)c2ccc(C(=O)Nc3ccc(-n4cncn4)cc3)s2)c(C)c1 [Compound 13]
≤ 1 | Cc1cc(O)ccc1NC(=O)c1ccc(C(=O)Nc2ccc(-n3cncn3)cc2)s1 [Compound 33]
≥ 40 | Cn1nc(-c2cccs2)cc1NC(=O)c1ccc(C(=O)Nc2ccc(-n3cncn3)cc2)s1 [Compound 195]
≤ 1 | O=C(Nc1ccc(-n2cncn2)c(F)c1)c1ccc(C(=O)Nc2ccccc2F)s1 [Compound 37]
1 to 40 | O=C(Nc1ccc(-n2cncn2)cc1)c1ccc(C(=O)Nc2cccc(Cl)c2)s1 [Compound 54]
1 to 40 | COC(=O)c1cc(OC)ccc1NC(=O)c1ccc(C(=O)Nc2ccc(-n3cncn3)cc2)s1 [Compound 75]
≥ 40 | CN(C(=O)c1ccc(C(=O)Nc2ccc(-n3cncn3)cc2)s1)c1ccccc1 [Compound 96]
≥ 40 | O=C(Nc1ccc(-n2cncn2)cc1)c1ccc(C(=O)Nc2nccs2)s1 [Compound 92]
≥ 40 | O=C(Nc1ccc(-n2cncn2)cc1)c1ccc(C(=O)Nc2ccccc2Cl)s1 [Compound 165]
≥ 40 | COc1ccc(NC(=O)c2ccc(C(=O)Nc3ccc(-n4cncn4)cc3F)s2)c(C)c1 [Compound 180]
≥ 40 | O=C(NC[C@H](O)c1ccccc1)c1ccc(C(=O)Nc2ccc(-n3cncn3)cc2)s1 [Compound 154]
≥ 40 | O=C(Nc1ccc(-n2cncn2)c(F)c1)c1ccc(C(=O)Nc2ccccc2Oc2cccnc2)s1 [Compound 205]
≥ 40 | O=C(Nc1ccc(-n2cncn2)c(F)c1)c1ccc(C(=O)Nc2ccccc2Oc2ccccc2)s1 [Compound 199]
≥ 40 | COc1ccc(NC(=O)c2ccc(C(=O)Nc3ccc(-n4cncn4)cc3)s2)cc1F [Compound 149]

IC50 [µM] | Compound
≥ 40 | O=C(Nc1ccc(-n2cncn2)c(F)c1)c1ccc(C(=O)Nc2ccccc2OCc2ccccc2)s1 [Compound 200]
≤ 1 | Cc1cc(OCCO)ccc1NC(=O)c1ccc(C(=O)Nc2ccc(-n3cncn3)cc2)s1 [Compound 4]
≥ 40 | O=C(Nc1ccc(-n2cncn2)c(F)c1)c1ccc(C(=O)Nc2ccccc2N2CCOCC2)s1 [Compound 207]
≥ 40 | O=C(NCc1cccnc1)c1ccc(C(=O)Nc2ccc(-n3cncn3)cc2)s1 [Compound 99]
≥ 40 | O=C(Nc1ccc(-n2cncn2)c(F)c1)c1ccc(C(=O)Nc2ccccc2OC2CCCCC2)s1 [Compound 203]
1 to 40 | O=C(Nc1ccc(-n2cncn2)c(F)c1)c1ccc(C(=O)Nc2ccccc2-c2ccccc2)s1 [Compound 77]
≥ 40 | O=C(Nc1ccc(-n2cncn2)c(F)c1)c1ccc(C(=O)Nc2ccccc2COc2ccccc2)s1 [Compound 204]
≥ 40 | O=C(Nc1ccc(-n2cncn2)c(F)c1)c1ccc(C(=O)Nc2ccccc2-n2cccn2)s1 [Compound 208]
≥ 40 | O=C(NCCc1ccccc1)c1ccc(C(=O)Nc2ccc(-n3cncn3)cc2)s1 [Compound 108]
1 to 40 | COc1ccc(NC(=O)c2ccc(C(=O)Nc3ccc(F)cc3-n3cncn3)s2)c(C)c1 [Compound 65]
≤ 1 | Cc1cc(N2CCOCC2)ccc1NC(=O)c1ccc(C(=O)Nc2ccc(-n3cncn3)c(F)c2)s1 [Compound 6]
1 to 40 | O=C(Nc1ccc(-n2cncn2)cc1)c1ccc(C(=O)N[C@H]2CCc3ccccc32)s1 [Compound 56]
≥ 40 | Cn1c(NC(=O)c2ccc(C(=O)Nc3ccc(-n4cncn4)cc3)s2)nc2ccccc21 [Compound 159]
≥ 40 | O=C(Nc1ccc(-n2cncn2)cc1)c1ccc(C(=O)Nc2ccc3c(c2)C(=O)OC3)s1 [Compound 160]
≥ 40 | Cc1cc(C)nc(NC(=O)c2ccc(C(=O)Nc3ccc(-n4cncn4)cc3)s2)c1 [Compound 109]
≤ 1 | Cc1cc(N2CCNCC2)ccc1NC(=O)c1ccc(C(=O)Nc2ccc(-n3cncn3)cc2)s1 [Compound 30]
≥ 40 | O=C(NCc1ccccn1)c1ccc(C(=O)Nc2ccc(-n3cncn3)cc2)s1 [Compound 97]
1 to 40 | O=C(Nc1ccc(-n2cncn2)cc1)c1ccc(C(=O)Nc2nc3ccccc3s2)s1 [Compound 58]
